Test results reported in ChEMBL document CHEMBL5550087, “Development of tenofovir monobenzyl ester phosphonoamidate prodrugs with improved anti-hepatitis B virus activity and intrahepatic tenofovir enrichment” (Bioorg Med Chem, 2024).
Values belong to the molecule of their own block, whether it stands above or below them.

Key:
[1] = Drug metabolism in ICR mouse liver assessed as tenofovir metabolite level at 50 mg/kg, ig measured after 3 hrs by LC-MS/MS analysis; format: ADME, organism-based; conditions: in vivo, po
[2] = Drug metabolism in ICR mouse liver assessed as ratio of tenofovir level to parent compound level at 50 mg/kg, ig measured after 3 hrs by LC-MS/MS analysis; format: ADME, organism-based; conditions: in vivo, po
[3] = Ratio of drug level in ICR mouse liver to plasma at 50 mg/kg, ig measured after 3 hrs by LC-MS/MS analysis; format: ADME, organism-based; conditions: liver and plasma, po
[4] = Drug metabolism in ICR mouse assessed as ratio of tenofovir metabolite level in liver to plasma at 50 mg/kg, ig measured after 3 hrs by LC-MS/MS analysis; format: ADME, organism-based; conditions: other tissue, po
[5] = Plasma concentration in ICR mouse at 50 mg/kg, ig measured after 3 hrs by LC-MS/MS analysis; format: ADME, organism-based; conditions: po
[6] = Drug uptake in ICR mouse liver at 50 mg/kg, ig measured after 3 hrs by LC-MS/MS analysis; format: ADME, organism-based; conditions: po, read-out: Drug uptake
[7] = Drug metabolism in ICR mouse plasma assessed as ratio of tenofovir level to parent compound level at 50 mg/kg, ig measured after 3 hrs by LC-MS/MS analysis; format: ADME, organism-based; conditions: in vivo, po
[8] = Drug metabolism in ICR mouse plasma assessed as tenofovir metabolite level at 50 mg/kg, ig measured after 3 hrs by LC-MS/MS analysis; format: ADME, organism-based; conditions: in vivo, po
Hepatitis B virus = assay: Antiviral activity against Hepatitis B virus infected in human HepG2.2.15 cells assessed as inhibition of viral DNA replication treated from day 2 to day 8 by real time fluorescence qPCR analysis; format: functional, organism-based
[9] = Cytotoxicity against human HepG2.2.15 cells assessed as reduction in cell viability treated from day 2 to day 8 by CellTiter-Blue reagent based fluorescence analysis; format: toxicity, HepG2 2.2.15; conditions: time 6 day
[10] = Mutagenicity in Salmonella typhimurium TA100 assessed as revertant colonies at 1.5 to 1000 ug/well incubated for 66.5 hrs in the dark in presence of S9 fraction by mini-Ames test; format: toxicity, subcellular; conditions: salmonella enterica subsp. enterica serovar typhimurium, s9, 66.5 h, dose 1.5-1000 µg
[11] = Stability of the compound in human plasma at 2 uM incubated for upto 120 mins by LC-MS/MS analysis; format: ADME, cell-free; conditions: 2 h
[12] = Drug metabolism in Sprague-Dawley rat assessed as terminal elimination half life of tenofovir metabolite at 25 mg/kg, ig measured for 24 hrs by LC-MS/MS analysis; format: ADME, organism-based; conditions: in vivo, po
[13] = Drug metabolism in Sprague-Dawley rat liver assessed as terminal elimination half life of tenofovir metabolite at 25 mg/kg, ig measured for 12 hrs by LC-MS/MS analysis; format: ADME, organism-based; conditions: in vivo, po
[14] = Drug metabolism in Sprague-Dawley rat kidney assessed as Cmax of tenofovir metabolite at 25 mg/kg, ig measured for 12 hrs by LC-MS/MS analysis; format: ADME, organism-based; conditions: in vivo, po
[15] = Drug metabolism in Sprague-Dawley rat liver assessed as Cmax of tenofovir metabolite at 25 mg/kg, ig measured for 12 hrs by LC-MS/MS analysis; format: ADME, organism-based; conditions: in vivo, po
[16] = Drug metabolism in Sprague-Dawley rat kidney assessed as terminal elimination half life of tenofovir metabolite at 25 mg/kg, ig measured for 12 hrs by LC-MS/MS analysis; format: ADME, organism-based; conditions: in vivo, po
[17] = Mutagenicity in Salmonella typhimurium TA100 assessed as revertant colonies at 1.5 to 1000 ug/well incubated for 66.5 hrs in the dark by mini-Ames test; format: toxicity; conditions: salmonella enterica subsp. enterica serovar typhimurium, dose 1.5-1000 µg
[18] = Drug metabolism in Sprague-Dawley rat kidney assessed as Tmax of tenofovir metabolite at 25 mg/kg, ig measured for 12 hrs by LC-MS/MS analysis; format: ADME, organism-based; conditions: in vivo, po
[19] = Drug metabolism in Sprague-Dawley rat assessed as clearance of tenofovir metabolite at 5 mg/kg, iv measured for 24 hrs by LC-MS/MS analysis; format: ADME, organism-based; conditions: in vivo
[20] = Drug metabolism in Sprague-Dawley rat assessed as Tmax of tenofovir metabolite at 25 mg/kg, ig measured for 24 hrs by LC-MS/MS analysis; format: ADME, organism-based; conditions: in vivo, po
[21] = Drug metabolism in Sprague-Dawley rat liver assessed as Tmax of tenofovir metabolite at 25 mg/kg, ig measured for 12 hrs by LC-MS/MS analysis; format: ADME, organism-based; conditions: in vivo, po
[22] = Drug metabolism in Sprague-Dawley rat assessed as terminal elimination half life of tenofovir metabolite at 5 mg/kg, iv measured for 24 hrs by LC-MS/MS analysis; format: ADME, organism-based; conditions: in vivo
[23] = Drug metabolism in Sprague-Dawley rat assessed as Cmax of tenofovir metabolite at 25 mg/kg, ig measured for 24 hrs by LC-MS/MS analysis; format: ADME, organism-based; conditions: in vivo, po
[24] = Drug metabolism in human liver S9 fraction assessed as tenofovir metabolite formation at 1 uM incubated for upto 60 mins by LC-MS/MS analysis; format: ADME, subcellular; conditions: s9, 1 h
[25] = Mutagenicity in Salmonella typhimurium TA98 assessed as revertant colonies at 1.5 to 1000 ug/well incubated for 66.5 hrs in the dark in presence of S9 fraction by mini-Ames test; format: toxicity, subcellular; conditions: salmonella enterica subsp. enterica serovar typhimurium, s9, 66.5 h, dose 1.5-1000 µg
[26] = target: Voltage-gated inwardly rectifying potassium channel KCNH2 (Homo sapiens, UniProt Q12809); assay: Inhibition of hERG expressed in CHO cells assessed as inhibition of channel current measured at holding potential of -80 mV by whole cell patch clamp analysis; format: toxicity, cell-based
[27] = Drug metabolism in Sprague-Dawley rat plasma assessed as Tmax of tenofovir metabolite at 25 mg/kg, ig measured for 12 hrs by LC-MS/MS analysis; format: ADME, organism-based; conditions: in vivo, po
[28] = Drug metabolism in Sprague-Dawley rat assessed as volume of distribution of tenofovir metabolite at 5 mg/kg, iv measured for 24 hrs by LC-MS/MS analysis; format: ADME, organism-based; conditions: in vivo
[29] = Drug metabolism in Sprague-Dawley rat plasma assessed as terminal elimination half life of tenofovir metabolite at 25 mg/kg, ig measured for 12 hrs by LC-MS/MS analysis; format: ADME, organism-based; conditions: in vivo, po
[30] = Drug metabolism in Sprague-Dawley rat assessed as bioavailability of tenofovir metabolite at 25 mg/kg, ig measured for 24 hrs by LCMS/MS analysis; format: ADME, organism-based; conditions: in vivo, po
[31] = Drug metabolism in Sprague-Dawley rat assessed as MRT(0 to t) of tenofovir metabolite at 5 mg/kg, iv measured for 24 hrs by LC-MS/MS analysis; format: ADME, organism-based; conditions: in vivo
[32] = Stability of the compound in simulated intestinal fluid at 10 uM incubated at 37 degC for upto 1440 mins by LC-MS/MS analysis; format: ADME; conditions: simulated gi fluid, 24 h
[33] = Mutagenicity in Salmonella typhimurium TA98 assessed as revertant colonies at 1.5 to 1000 ug/well incubated for 66.5 hrs in the dark by mini-Ames test; format: toxicity; conditions: salmonella enterica subsp. enterica serovar typhimurium, dose 1.5-1000 µg
[34] = Stability of the compound in simulated gastric fluid at 10 uM incubated at 37 degC for upto 1440 mins by LC-MS/MS analysis; format: ADME; conditions: simulated gi fluid, 24 h
[35] = Drug metabolism in Sprague-Dawley rat plasma assessed as Cmax of tenofovir metabolite at 25 mg/kg, ig measured for 12 hrs by LC-MS/MS analysis; format: ADME, organism-based; conditions: in vivo, po

Chain of Voltage-gated inwardly rectifying potassium channel KCNH2 (Q12809 whole entry): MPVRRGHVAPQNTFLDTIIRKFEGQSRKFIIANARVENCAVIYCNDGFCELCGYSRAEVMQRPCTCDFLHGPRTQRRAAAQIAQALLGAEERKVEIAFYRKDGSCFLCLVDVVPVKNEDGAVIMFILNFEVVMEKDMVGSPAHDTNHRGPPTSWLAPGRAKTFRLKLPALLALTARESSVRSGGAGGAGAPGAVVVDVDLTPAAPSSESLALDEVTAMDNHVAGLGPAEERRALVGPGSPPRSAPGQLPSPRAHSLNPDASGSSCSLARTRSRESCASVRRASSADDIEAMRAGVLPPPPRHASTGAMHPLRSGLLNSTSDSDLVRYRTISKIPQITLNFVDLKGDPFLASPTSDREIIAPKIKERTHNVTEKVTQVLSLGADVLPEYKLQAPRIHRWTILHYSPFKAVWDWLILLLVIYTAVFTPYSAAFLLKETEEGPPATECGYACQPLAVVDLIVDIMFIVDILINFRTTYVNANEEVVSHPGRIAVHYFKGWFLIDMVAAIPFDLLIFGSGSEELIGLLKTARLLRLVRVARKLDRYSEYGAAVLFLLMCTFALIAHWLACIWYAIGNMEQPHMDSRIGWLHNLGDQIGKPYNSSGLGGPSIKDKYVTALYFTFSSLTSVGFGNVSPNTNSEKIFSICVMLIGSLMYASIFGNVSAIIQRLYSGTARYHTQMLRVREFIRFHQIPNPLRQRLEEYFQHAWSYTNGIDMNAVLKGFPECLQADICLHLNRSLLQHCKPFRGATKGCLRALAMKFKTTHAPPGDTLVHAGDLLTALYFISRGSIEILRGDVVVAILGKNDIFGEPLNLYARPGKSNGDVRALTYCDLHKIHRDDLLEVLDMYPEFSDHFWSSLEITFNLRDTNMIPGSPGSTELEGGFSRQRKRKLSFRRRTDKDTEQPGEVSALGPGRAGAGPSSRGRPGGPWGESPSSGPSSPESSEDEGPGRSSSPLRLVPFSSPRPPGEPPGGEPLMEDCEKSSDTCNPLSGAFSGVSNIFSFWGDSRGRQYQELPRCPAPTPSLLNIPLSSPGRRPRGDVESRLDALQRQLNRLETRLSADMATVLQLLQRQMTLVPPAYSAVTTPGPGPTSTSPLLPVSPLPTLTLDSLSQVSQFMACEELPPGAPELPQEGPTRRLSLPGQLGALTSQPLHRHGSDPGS

Compound: CC(C)OC(=O)[C@H](C)NP(=O)(CO[C@H](C)Cn1cnc2c(N)ncnc21)OCc1ccccc1 (some centres not stated)
Drug metabolism [1]: 67.251 nmol/mL
Ratio [2]: 166
Kp at 3 h [3]: 3.61
Ratio [4]: 896
concentration at 3 h [5]: 104 nM
concentration at 3 h [6]: 375 nM
Ratio [7]: 0.72
Drug metabolism [8]: 0.075 nmol/mL

Compound: CC(C)OC(=O)CNP(=O)(CO[C@H](C)Cn1cnc2c(N)ncnc21)OCc1ccccc1 (single isomer, unassigned; 1a)
EC50 (Hepatitis B virus): > 1 µM
CC50 at 144 h [9]: > 100 µM

Compound: COC(=O)CNP(=O)(CO[C@H](C)Cn1cnc2c(N)ncnc21)OCc1ccccc1 (single isomer, unassigned; 2a)
EC50 (Hepatitis B virus): 0.418 µM
CC50 at 144 h [9]: > 100 µM

Compound: COC(=O)CNP(=O)(CO[C@H](C)Cn1cnc2c(N)ncnc21)OCc1ccccc1 (single isomer, unassigned; 2b)
EC50 (Hepatitis B virus): > 1 µM
CC50 at 144 h [9]: > 100 µM

Compound: C[C@H](Cn1cnc2c(N)ncnc21)OCP(=O)(NCC(=O)Oc1ccccc1)OCc1ccccc1 (single isomer, unassigned; 4b)
EC50 (Hepatitis B virus): 0.848 µM
CC50 at 144 h [9]: > 100 µM

Compound: Cc1ccccc1COP(=O)(CO[C@H](C)Cn1cnc2c(N)ncnc21)N[C@@H](C)C(=O)OC(C)C (single isomer, unassigned; 5a)
EC50 (Hepatitis B virus): > 1 µM
CC50 at 144 h [9]: > 100 µM

Compound: CC(C)OC(=O)[C@H](C)N[P@](=O)(CO[C@H](C)Cn1cnc2c(N)ncnc21)Oc1ccccc1 [TENOFOVIR ALAFENAMIDE]
t1/2 [12]: 5.46 h
t1/2 [13]: 6.2 h
Cmax [14]: 16471 ng/mL
Cmax [15]: 29820 ng/mL
t1/2 [16]: 5.2 h
Tmax [18]: 0.25 h
CL [19]: 42.8 mL/min/kg
Tmax [20]: 0.375 h
Tmax [21]: 0.25 h
t1/2 [22]: 4.59 h
Cmax [23]: 1370 ng/mL
Drug metabolism [24]: Metabolite_Detected
IC50 [26]: > 10 µM
Tmax [27]: 0.25 h
Vd [28]: 16.1 L/kg
t1/2 [29]: 4.44 h
F [30]: 27.7%
MRT(t) [31]: 1.67 h
EC50 (Hepatitis B virus): 0.0178 µM
Cmax [35]: 4027 ng/mL
CC50 at 144 h [9]: > 100 µM

The remaining molecules from weak to strong by EC50 (Hepatitis B virus), led by results:

EC50 (Hepatitis B virus): 0.29 µM
Compound: CC(C)OC(=O)CNP(=O)(CO[C@H](C)Cn1cnc2c(N)ncnc21)OCc1ccccc1 (single isomer, unassigned; 1b)
CC50 at 144 h [9]: > 100 µM

EC50 (Hepatitis B virus): 0.275 µM
Compound: Cc1ccccc1COP(=O)(CO[C@H](C)Cn1cnc2c(N)ncnc21)N[C@@H](C)C(=O)OC(C)C (single isomer, unassigned; 5b)
IC50 [26]: > 10 µM
CC50 at 144 h [9]: > 100 µM

EC50 (Hepatitis B virus): 0.214 µM
Compound: C[C@H](Cn1cnc2c(N)ncnc21)OCP(=O)(NCC(=O)Oc1ccccc1)OCc1ccccc1 (single isomer, unassigned; 4a)
CC50 at 144 h [9]: > 100 µM

Stability [11]: Stable
t1/2 [12]: 2.84 h
t1/2 [13]: 10.7 h
Cmax [14]: 4663 ng/mL
Cmax [15]: 10557 ng/mL
t1/2 [16]: 26.2 h
Tmax [18]: 0.25 h
CL [19]: 435 mL/min/kg
Tmax [20]: 0.375 h
Tmax [21]: 0.25 h
t1/2 [22]: 2 h
Cmax [23]: 143 ng/mL
Drug metabolism [24]: Metabolite_Detected
Tmax [27]: 0.25 h
Vd [28]: 67.4 L/kg
t1/2 [29]: 6.56 h
F [30]: 31.5%
MRT(t) [31]: 0.489 h
Stability [32]: Stable
EC50 (Hepatitis B virus): 0.006 µM
Stability [34]: Stable
Cmax [35]: 216 ng/mL
Compound: CC(C)OC(=O)[C@H](C)NP(=O)(CO[C@H](C)Cn1cnc2c(N)ncnc21)OCc1ccccc1 (single isomer, unassigned; 3b)
Activity [10]: Non-Toxic
Activity [17]: Non-Toxic
Activity [25]: Non-Toxic
IC50 [26]: > 30 µM
Activity [33]: Non-Toxic
CC50 at 144 h [9]: > 100 µM

Stability [11]: Stable
t1/2 [12]: 10.7 h
t1/2 [13]: 6.77 h
Cmax [14]: 3234 ng/mL
Cmax [15]: 10589 ng/mL
t1/2 [16]: 322 h
Tmax [18]: 0.25 h
CL [19]: 348 mL/min/kg
Tmax [20]: 0.147 h
Tmax [21]: 0.25 h
t1/2 [22]: 2.89 h
Cmax [23]: 98.35 ng/mL
Drug metabolism [24]: Metabolite_Detected
Tmax [27]: 0.25 h
Vd [28]: 86.6 L/kg
t1/2 [29]: 6.58 h
F [30]: 32.7%
MRT(t) [31]: 0.921 h
Stability [32]: Stable
EC50 (Hepatitis B virus): 0.00339 µM
Stability [34]: Stable
Cmax [35]: 279 ng/mL
Compound: CC(C)OC(=O)[C@H](C)NP(=O)(CO[C@H](C)Cn1cnc2c(N)ncnc21)OCc1ccccc1 (single isomer, unassigned; 3a)
Activity [10]: Non-Toxic
Activity [17]: Non-Toxic
Activity [25]: Non-Toxic
IC50 [26]: > 10 µM
Activity [33]: Non-Toxic
CC50 at 144 h [9]: > 100 µM
